According to ChEMBL document CHEMBL5370670, “Anti-MRSA Dimeric and Brominated Phenyltetracenoids Produced by Streptomyces morookaense SC1169” (J Nat Prod, 2023):
≈ marks a conversion by molar mass, not a printed value. Counter-ions that a name gives are not always drawn.

Key:
Staphylococcus aureus [1] = assay: Antibacterial activity against methicillin-resistant Staphylococcus aureus incubated for 6 to 8 hrs by microplate Alamar Blue assay; format: functional; settings: time 6-8 hrs
Enterococcus faecium [2] = assay: Antibacterial activity against vancomycin-resistant Enterococcus faecium incubated for 6 to 8 hrs by microplate Alamar Blue assay; format: functional; settings: time 6-8 hrs
Staphylococcus aureus [3] = assay: Antibacterial activity against Staphylococcus aureus ATCC 6538 incubated for 6 to 8 hrs by microplate Alamar Blue assay; format: functional; settings: time 6-8 hrs
Enterococcus faecium [4] = assay: Antibacterial activity against Enterococcus faecium incubated for 6 to 8 hrs by microplate Alamar Blue assay; format: functional; settings: time 6-8 hrs
MCF7 = assay: Cytotoxicity against human MCF7 cells assessed as cell growth inhibition incubated for 48 hrs by MTT assay; format: functional, cell-based; settings: MCF7, 48 h
[5] = Cytotoxicity against African green monkey Vero cells assessed as cell growth inhibition incubated for 48 hrs by MTT assay; format: toxicity, cell-based; settings: African green monkey (Chlorocebus sabaeus)
HeLa = assay: Cytotoxicity against human HeLa cells assessed as cell growth inhibition incubated for 48 hrs by MTT assay; format: functional, cell-based
HepG2 = assay: Cytotoxicity against human HepG2 cells assessed as cell growth inhibition incubated for 48 hrs by MTT assay; format: functional, cell-based; settings: HepG2, 48 h
A549 = assay: Cytotoxicity against human A549 cells assessed as cell growth inhibition incubated for 48 hrs by MTT assay; format: functional, cell-based; settings: A549, 48 h
[6] = Selectivity index, ratio of IC50 for cytotoxicity against African green monkey Vero cells to IC50 for cytotoxicity against human A549 cells; format: toxicity, cell-based; settings: Vero cells and A549 cells, read-out: Ratio IC50

Compound	MIC (Staphylococcus aureus [1]) [µg/mL]	MIC (Enterococcus faecium [2]) [µg/mL]	MIC (Staphylococcus aureus [3]) [µg/mL]	MIC (Enterococcus faecium [4]) [µg/mL]	IC50 (MCF7) [µM]	IC50 at 48 h [5] [µM]	IC50 (HeLa) [µM]	IC50 (HepG2) [µM]	IC50 (A549) [µM]	selectivity ratio [6]
COc1cc(C)c(-c2cc(OC)cc3cc4c(c(O)c23)C(=O)c2c(O)cc(O)cc2C4(C)C)c(O)c1	1.3 (≈ 2.67 µM)	1.3 (≈ 2.67 µM)	1.3 (≈ 2.67 µM)	1.3 (≈ 2.67 µM)						
COc1cc(C)c(-c2cc(O)c(Cl)c3cc4c(c(O)c23)C(=O)c2c(cc(OC)c(Cl)c2O)C4(C)C)c(O)c1	2.5 (≈ 4.5 µM)	2.5 (≈ 4.5 µM)	2.5 (≈ 4.5 µM)	2.5 (≈ 4.5 µM)						
COc1cc(C)c(-c2cc(O)cc3cc4c(c(O)c23)C(=O)c2c(cc(OC)c(Cl)c2O)C4(C)C)c(O)c1	2.5 (≈ 4.8 µM)	2.5 (≈ 4.8 µM)	2.5 (≈ 4.8 µM)	2.5 (≈ 4.8 µM)						
COc1cc(C)c(-c2cc(OC)cc3cc4c(c(O)c23)C(=O)c2c(O)cc(OC)cc2C4(C)C)c(O)c1	> 10		> 10	> 10	6.2	7.6	6.7	2.7	4.6	
COc1cc(C)c(-c2cc(O)cc3cc4c(c(O)c23)C(=O)c2c(O)cc(OC)cc2C4(C)C)c(O)c1	2.5 (≈ 5.14 µM)	2.5 (≈ 5.14 µM)	2.5 (≈ 5.14 µM)	1.3 (≈ 2.67 µM)	16.5	6.7	6.5	7	5.3	
COc1cc(C)c(-c2cc(O)cc3cc4c(c(O)c23)C(=O)c2c(cc(OC)c(Br)c2O)C4(C)C)c(O)c1	0.6 (≈ 1.06 µM)	1.3 (≈ 2.3 µM)	0.6 (≈ 1.06 µM)	1.3 (≈ 2.3 µM)	3.1	2.8	4.1	3.5	2.5	
COc1cc(C)c(-c2cc(O)cc3cc4c(c(O)c23)C(=O)c2c(cc(OC)c(Br)c2OC)C4(C)C)c(O)c1	5 (≈ 8.63 µM)	5 (≈ 8.63 µM)	5 (≈ 8.63 µM)	5 (≈ 8.63 µM)	8.6	5.8	5.1	5.7	4.7	
COc1cc(-c2c(O)cc(OC)c(Cc3c(OC)cc(C)c(-c4cc(OC)cc5cc6c(c(O)c45)C(=O)c4c(O)cc(O)cc4C6(C)C)c3O)c2C)c2c(O)c3c(cc2c1)C(C)(C)c1cc(O)cc(O)c1C3=O	> 10		> 10	> 10	> 50	> 50	> 50	> 50	> 50	
COc1cc(C)c(-c2cc(OC)cc3cc4c(c(O)c23)C(=O)c2c(OC)cc(OC)cc2C4(C)C)c(O)c1	> 10		> 10	> 10	9.2	9	7.7	5.8	6	
COC1=CC(=O)C(c2cc(OC)cc3cc4c(c(O)c23)C(=O)c2c(O)cc(O)cc2C4(C)C)=C(C)C1=O	> 10		> 10	> 10	9.6	15.1	14.6	12.4	8.9	
COc1cc(-c2c(O)cc(OC)c(Cc3c(OC)cc(O)c(-c4cc(OC)cc5cc6c(c(O)c45)C(=O)c4c(O)cc(O)cc4C6(C)C)c3C)c2C)c2c(O)c3c(cc2c1)C(C)(C)c1cc(O)cc(O)c1C3=O	2.5 (≈ 2.54 µM)		2.5 (≈ 2.54 µM)	> 10	17.2	17.6	15.8	16.7	5.7	3
COc1cc(C)c(-c2cc(OC)cc3cc4c(c(O)c23)C(=O)c2c(cc(O)c(Br)c2O)C4(C)C)c(O)c1	1.3 (≈ 2.3 µM)	2.5 (≈ 4.42 µM)	1.3 (≈ 2.3 µM)	1.3 (≈ 2.3 µM)	8.9	9	3.6	5.2	3.3	
COc1cc(C)c(-c2cc(O)c(Br)c3cc4c(c(O)c23)C(=O)c2c(cc(OC)c(Br)c2O)C4(C)C)c(O)c1	1.3 (≈ 2.02 µM)	2.5 (≈ 3.88 µM)	1.3 (≈ 2.02 µM)	2.5 (≈ 3.88 µM)	4.6	15.1	1.7	5.9	2.8	
COc1cc(C)c(C(=O)c2c(CC(C)=O)cc3c(c2O)C(=O)c2c(cc(OC)c(Br)c2OC)C3(C)C)c(OC)c1	> 10		> 10	> 10	12.3	> 50	12.6	13.6	10.2	
COc1cc(-c2c(O)cc(OC)c(OC)c2C)c2c(O)c3c(cc2c1)C(C)(C)c1cc(O)cc(O)c1C3=O	5 (≈ 9.68 µM)	5 (≈ 9.68 µM)	5 (≈ 9.68 µM)	5 (≈ 9.68 µM)	12.3	4.5	11.1	4.8	6.3	
COc1cc(C)c(-c2cc(OC)cc3cc4c(c(O)c23)C(=O)c2c(cc(OC)c(Br)c2O)C4(C)C)c(O)c1	> 10		> 10	> 10	7.9	7.3	1.7	4.7	3.3	
COc1cc(C)c(-c2cc(OC)c(Br)c3cc4c(c(O)c23)C(=O)c2c(O)cc(O)cc2C4(C)C)c(O)c1	1.3 (≈ 2.3 µM)	1.3 (≈ 2.3 µM)	1.3 (≈ 2.3 µM)	1.3 (≈ 2.3 µM)	5.3	5.7	5.8	4.5	3.1	
COc1cccc2c1C(=O)c1c(O)c3c(c(O)c1C2=O)C[C@@](O)(C(=O)CO)C[C@@H]3O[C@H]1C[C@H](N)[C@H](O)[C@H](C)O1 [DOXORUBICIN HYDROCHLORIDE]								0.8	0.7	
NC[C@H]1O[C@H](O[C@H]2[C@H](O)[C@@H](O[C@H]3O[C@H](CO)[C@@H](O)[C@H](N)[C@H]3O)[C@H](N)C[C@@H]2N)[C@H](O)[C@@H](O)[C@@H]1O [KANAMYCIN]			1.3 (≈ 2.68 µM)							
CN[C@H](CC(C)C)C(=O)N[C@H]1C(=O)N[C@@H](CC(N)=O)C(=O)N[C@H]2C(=O)N[C@H]3C(=O)N[C@H](C(=O)N[C@H](C(=O)O)c4cc(O)cc(O)c4-c4cc3ccc4O)[C@H](O)c3ccc(c(Cl)c3)Oc3cc2cc(c3O[C@@H]2O[C@H](CO)[C@@H](O)[C@H](O)[C@H]2O[C@H]2C[C@](C)(N)[C@H](O)[C@H](C)O2)Oc2ccc(cc2Cl)[C@H]1O [VANCOMYCIN]	0.6 (≈ 0.414 µM)	> 40		1.3 (≈ 0.897 µM)						
